Paper PMC3805035 (Proteins, 2010)

Tests used:
[1] = molecular target: T1, M. tuberculosis Rv3377c (halimadienyl diphosphate synthase) (Mycobacterium tuberculosis, UniProt O50406); format: biochemical
T1 sequence (O50406 1-501): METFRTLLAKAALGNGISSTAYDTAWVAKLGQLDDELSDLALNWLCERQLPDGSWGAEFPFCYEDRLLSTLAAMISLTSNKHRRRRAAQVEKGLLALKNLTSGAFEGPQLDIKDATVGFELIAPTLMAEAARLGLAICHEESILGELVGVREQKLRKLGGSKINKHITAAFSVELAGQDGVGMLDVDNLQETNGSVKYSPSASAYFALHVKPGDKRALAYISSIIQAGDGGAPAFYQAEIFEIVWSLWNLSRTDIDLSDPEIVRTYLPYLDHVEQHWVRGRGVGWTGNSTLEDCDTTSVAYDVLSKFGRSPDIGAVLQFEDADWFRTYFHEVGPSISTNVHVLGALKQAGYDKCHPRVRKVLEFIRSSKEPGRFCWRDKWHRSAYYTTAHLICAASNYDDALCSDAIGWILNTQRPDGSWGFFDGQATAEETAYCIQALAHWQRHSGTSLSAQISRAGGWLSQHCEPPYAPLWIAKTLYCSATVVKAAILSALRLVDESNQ

[2] = molecular target: T2, abietadiene synthase (AgABS) (Abies grandis, UniProt Q38710); format: biochemical
T2 sequence (Q38710 71-868): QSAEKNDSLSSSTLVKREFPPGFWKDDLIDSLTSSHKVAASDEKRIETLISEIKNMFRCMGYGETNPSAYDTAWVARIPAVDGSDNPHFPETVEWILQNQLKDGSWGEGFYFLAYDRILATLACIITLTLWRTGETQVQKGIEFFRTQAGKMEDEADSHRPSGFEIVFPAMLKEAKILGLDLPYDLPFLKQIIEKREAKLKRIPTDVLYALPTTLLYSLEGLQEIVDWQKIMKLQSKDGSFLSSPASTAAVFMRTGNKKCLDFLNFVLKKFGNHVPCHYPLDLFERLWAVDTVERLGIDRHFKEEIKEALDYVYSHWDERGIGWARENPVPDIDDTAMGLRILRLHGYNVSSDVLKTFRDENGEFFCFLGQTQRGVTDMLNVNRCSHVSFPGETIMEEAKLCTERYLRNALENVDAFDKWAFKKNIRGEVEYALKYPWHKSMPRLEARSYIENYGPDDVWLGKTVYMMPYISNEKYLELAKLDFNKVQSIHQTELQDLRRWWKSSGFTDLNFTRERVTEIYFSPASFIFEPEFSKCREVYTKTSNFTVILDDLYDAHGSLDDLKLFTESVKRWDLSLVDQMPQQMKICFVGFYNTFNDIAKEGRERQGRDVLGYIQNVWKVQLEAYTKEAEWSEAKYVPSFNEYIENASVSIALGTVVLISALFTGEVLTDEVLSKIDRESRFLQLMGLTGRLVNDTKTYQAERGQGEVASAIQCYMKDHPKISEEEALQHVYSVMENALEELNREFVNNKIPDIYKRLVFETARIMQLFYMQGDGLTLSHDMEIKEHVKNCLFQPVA

| Structure (SMILES) | effect on ABS activity [2] | activity against the M. tuberculosis protein (Rv3377c) [1] | other results |
| --- | --- | --- | --- |
| C/C(=C\CC/C(C)=C/COP(=O)(O)OP(=O)(O)O)CC/C=C(\C)CCCN(C)C [15-aza-GGPP] | – | – | IC50 ([1]; read-out: Rv3377c inhibition (quantity not given)): 0.005 µM |
| CC(C)=CCCC(C)=CCCC(C)=CCC(P(=O)(O)O)P(=O)(O)O [BPH-850, farnesylmethylene bisphosphonate] | – | – | comparison of IC50 using GGPP or CPP as substrate, ABS ([2]; GGPP versus CPP as substrate): about the same IC50 |
| C=CCN(C)CCCCCCCCCCCCCCCC(=O)OC [BPH-922] | – | – | IC50 [2]: 0.25 µM |
| O=P(O)(O)C(O)(Cc1cnc2ccccn12)P(=O)(O)O [minodronate] | no effect | no activity | – |
| O=P(O)(O)C(O)(Cn1ccnc1)P(=O)(O)O [zoledronate] | no effect | no activity | – |
